From patent US20050197350A1, “Novel quinoline, tetrahydroquinazoline, and pyrimidine derivatives and methods of treatment related to the use thereof” (TAISHO PHARMACEUTICAL CO., LTD., priority 2003, published 2005)
Structures can show the parent of a compound that is named as a salt.

These molecules were tested against MCH receptor (Homo sapiens, UniProt Q99705) (assay: High throughput functional screening FLIPR/FDSS6000 (intracellular Ca2+ evoked by MCH)). Conditions: FLIPR/FDSS, antagonist activity vs 50 nM MCH; class by percent of control at 10^−7 M or IC50; read-out: class.
Assay type: cell-based
Method in brief: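 For antagonist testing, compound-treated cells (30 min, 37 °C) were stimulated with 50 nM MCH and intracellular Ca2+ followed by Fluo4 fluorescence on FLIPR/FDSS6000. Receptor was a constitutively active, non-endogenous MCH receptor; dye loading 4 μM Fluo4-AM, 1 h, 37 °C.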

| IC50 | SMILES |
| --- | --- |
| 50 to 200 nM | Cc1cc(N(C)C)nc(N[C@H]2CC[C@@H](NC(=O)c3cccnc3S(=O)(=O)c3cccc(Br)c3)CC2)n1 [Example 3373, 2-[(3-bromophenyl)sulfonyl]-N-(cis-4-{[4-(dimethylamino)-6-methylpyrimidin-2-yl]amino}cyclohexyl)nicotinamide] |
| 50 to 200 nM | COc1nc(N[C@H]2CC[C@@H](NC(=O)c3ccc(Cl)c(Cl)c3)CC2)ncc1C [Example 3278, 3,4-dichloro-N-{cis-4-[(4-methoxy-5-methylpyrimidin-2-yl)amino]cyclohexyl}benzamide] |
| 50 to 200 nM | Cc1cnc(N[C@H]2CC[C@@H](NC(=O)c3cccnc3S(=O)(=O)c3cccc(C(F)(F)F)c3)CC2)nc1N(C)C [Example 3287, N-(cis-4-{[4-(dimethylamino)-5-methylpyrimidin-2-yl]amino}cyclohexyl)-2-{[3-(trifluoromethyl)phenyl]sulfonyl}-nicotinamide] |
| > 200 nM | Cc1cnc(N[C@H]2CC[C@@H](NC(=O)COc3cc(C(F)(F)F)ncn3)CC2)nc1N(C)C [Example 3357, N-(cis-4-{[4-(dimethylamino)-5-methylpyrimidin-2-yl]amino}cyclohexyl)-2-{[6-(trifluoromethyl)pyrimidin-4-yl]oxy}acetamide] |
| 50 to 200 nM | Cc1cnc(N[C@H]2CC[C@@H](NC(=O)Nc3ccc(Cl)cc3Cl)CC2)nc1N(C)C [Example 3338, N-(2,4-dichlorophenyl)-N′-(cis-4-{[4-(dimethylamino)-5-methylpyrimidin-2-yl]amino}cyclohexyl)urea] |
| < 50 nM | CNc1cc(C)nc(N[C@H]2CC[C@@H](NC(=O)COc3ccc(Cl)c(Cl)c3)CC2)n1 [Example 3360, 2-(3,4-dichlorophenoxy)-N-(cis-4-{[4-methyl-6-(methylamino)pyrimidin-2-yl]amino}cycohexyl)acetamide] |

Same assay, conditions: FLIPR/FDSS, antagonist activity vs 50 nM MCH; class by percent of control at 10^−7 M or IC50; table after the classification; read-out: class

| IC50 | SMILES |
| --- | --- |
| < 50 nM | CN(C)c1nc(N[C@H]2CC[C@@H](NC(=O)c3ccc4nonc4c3)CC2)nc2c1CCCC2 [Example 3111, Benzo[2,1,3]oxadiazole-5-carboxylic acid-[cis-4-(4-dimethylamino-5,6,7,8-tetrahydro-quinazolin-2-ylamino)-cyclohexyl]-amide hydrochloride] |
| < 50 nM | Cc1cc(N[C@H]2CC[C@@H](NC(=O)c3cccc(C#N)c3)CC2)nc2ccccc12 [Example 3087, 3-Cyano-N-[cis-4-(4-methyl-quinolin-2-ylamino)-cyclohexyl]-benzamide hydrochloride] |
| > 200 nM | O=C(N[C@H]1CC[C@@H](Nc2nccc(C(F)(F)F)n2)CC1)c1cccnc1Oc1ccccc1 [Example 3133, 2-Phenoxy-N-[cis-4-(4-trifluoromethyl-pyrimidin-2-yl)-amino-cyclohexyl]-nicotinamide hydrochloride] |
| < 50 nM | Cc1cnc(N[C@H]2CC[C@@H](NC(=O)c3ccc(F)c(Cl)c3)CC2)nc1N(C)C [Example 3228, 3-Chloro-N-[cis-4-(4-dimethylamino-5-methyl-pyrimidin-2-ylamino)-cyclohexyl]-4-fluoro-benzamide hydrochloride] |
| > 200 nM | CN(C)c1ccnc(N[C@H]2CC[C@@H](NC(=O)c3ccc(C(F)(F)F)nc3)CC2)n1 [Example 3212, N-[cis-4-(4-Dimethylamino-pyrimidin-2-ylamino)-cyclohexyl]-6-trifluoromethyl-nicotinamide hydrochloride] |
| < 50 nM | CCN(CC(=O)N[C@H]1CC[C@@H](Nc2nccc(N(C)C)n2)CC1)c1ccccc1 [Example 3202, N-[cis-4-(4-Dimethylamino-pyrimidin-2-ylamino)-cyclohexyl]-C-(ethyl-phenyl-amino)-acetamide dihydrochloride] |
| < 50 nM | Cc1cc(N[C@H]2CC[C@@H](NC(=O)COc3cccc(Cl)c3)CC2)nc2ccccc12 [Example 3099, 2-(3-Chloro-phenoxy)-N-[cis-4-(4-methyl-quinolin-2-ylamino)-cyclohexyl]-acetamide hydrochloride] |
| < 50 nM | Cc1cc(N[C@H]2CC[C@@H](NC(=O)c3ccc(F)c(Cl)c3)CC2)nc2ccccc12 [Example 3239, 3-Chloro-4-fluoro-N-[cis-4-(4-methyl-quinolin-2-ylamino)-cyclohexyl]-benzamide methanesulfonic acid] |
| > 200 nM | CN(C)c1nc(N[C@H]2CC[C@@H](CNC(=O)c3cccnc3Oc3ccccc3)CC2)nc2c1CCCC2 [Example 3113, N-[cis-4-(4-Dimethylamino-5,6,7,8-tetrahydro-quinazolin-2-ylamino)-cyclohexylmethyl]-2-phenoxy-nicotinamide hydrochloride] |
| > 200 nM | COc1cc(N[C@H]2CC[C@@H](NC(=O)c3ccc(F)c(F)c3)CC2)nc2ccccc12 [Example 3116, 3,4-Difluoro-N-[cis-4-(4-methoxy-quinolin-2-ylamino)-cyclohexyl]-benzamide hydrochloride] |
| < 50 nM | Cc1cc(N[C@H]2CC[C@@H](NC(=O)c3cncc(Cl)c3)CC2)nc2ccccc12 [Example 3396, 5-Chloro-N-[cis-4-(4-methyl-quinolin-2-ylamino)-cyclohexyl]-nicotinamide] |
| < 50 nM | CN(C)c1nc(N[C@H]2CC[C@@H](NC(=O)c3cccc([N+](=O)[O-])c3)CC2)nc2c1CCCC2 [Example 3112, N-[cis-4-(4-Dimethylamino-5,6,7,8-tetrahydro-quinazolin-2-ylamino)-cyclohexyl]-3-nitro-benzamide hydrochloride] |
| 50 to 200 nM | Cc1cc(N[C@H]2CC[C@@H](NC(=O)c3cccc(CO)c3)CC2)nc2ccccc12 [Example 3177, 3-Hydroxymethyl-N-[cis-4-(4-methyl-quinolin-2-ylamino)-cyclohexyl]-benzamide hydrochloride] |
| < 50 nM | Cc1cccc(C(=O)N[C@H]2CC[C@@H](Nc3cc(C)c4ccccc4n3)CC2)c1 [Example 3075, 3-Methyl-N-[cis-4-(4-methyl-quinolin-2-ylamino)-cyclohexyl]-benzamide hydrochloride] |
| < 50 nM | O=C(N[C@H]1CC[C@@H](Nc2ccc3ccccc3n2)CC1)c1ccc(F)c(F)c1 [Example 3031, 3,4-Difluoro-N-[cis-4-(quinolin-2-ylamino)-cyclohexyl]-benzamide hydrochloride] |
| > 200 nM | CN(C)c1ccnc(N[C@H]2CC[C@@H](NC(=O)c3ccc(-c4ccc(F)cc4)cc3)CC2)n1 [Example 3200, 4′-Fluoro-biphenyl-4-carboxylic acid [cis-4-(4-dimethylamino-pyrimidin-2-ylamino)-cyclohexyl]-amide hydrochloride] |
| > 200 nM | CCN(C)c1ccnc(N[C@H]2CC[C@@H](NC(=O)c3ccc(F)c(F)c3)CC2)n1 [Example 3226, N-{cis-4-[4-(Ethyl-methyl-amino)-pyrimidin-2-ylamino]-cyclohexyl}-3,4-difluoro-benzamide hydrochloride] |
| < 50 nM | CCN(CC(=O)N[C@H]1CC[C@@H](Nc2nccc(N(C)C)n2)CC1)c1ccc(Cl)cc1 [Example 3203, C-[cis-(4-Chloro-phenyl)-ethyl-amino]-N-[4-(4-dimethylamino-pyrimidin-2-ylamino)-cyclohexyl]-acetamide dihydrochloride] |
| < 50 nM | CN(C)c1nc(N[C@H]2CC[C@@H](NC(=O)c3cc([N+](=O)[O-])cn3C)CC2)nc2c1CCCC2 [Example 3194, 1-Methyl-4-nitro-1H-pyrrole-2-carboxylic acid [cis-4-(4-dimethylamino-5,6,7,8-tetrahydro-quinazolin-2-ylamino)-cyclohexyl]-amide hydrochloride] |
| < 50 nM | CN(C)c1ccnc(N[C@H]2CC[C@@H](CNC(=O)C3c4ccccc4Oc4ccccc43)CC2)n1 [Example 3221, 9H-Xanthene-9-carboxylic acid [cis-4-(4-dimethylamino-pyrimidin-2-ylamino)-cyclohexylmethyl]-amide hydrochloride] |
| < 50 nM | Cc1cc(N[C@H]2CC[C@@H](NC(=O)c3cc([N+](=O)[O-])cn3C)CC2)nc2ccccc12 [Example 3081, 1-Methyl-4-nitro-1H-pyrrole-2-carboxylic acid-[cis-4-(4-methyl-quinolin-2-ylamino)-cyclohexyl]-amide hydrochloride] |
| < 50 nM | O=C(N[C@H]1CC[C@@H](Nc2ccc3ccccc3n2)CC1)c1ccc(F)c(Cl)c1 [Example 3038, 3-Chloro-4-fluoro-N-[cis-4-(quinolin-2-ylamino)-cyclohexyl]-benzamide hydrochloride] |
| < 50 nM | COc1cccc(OCC(=O)N[C@H]2CC[C@@H](Nc3ccc4ccccc4n3)CC2)c1 [Example 3062, 2-(3-Methoxy-phenoxy)-N-[cis-4-(quinolin-2-ylamino)-cyclohexyl]-acetamide hydrochloride] |
| < 50 nM | Cc1cccc(OCC(=O)N[C@H]2CC[C@@H](Nc3ccc4ccccc4n3)CC2)c1 [Example 3051, N-[cis-4-(Quinolin-2-ylamino)-cyclohexyl]-2-m-tolyloxy-acetamide hydrochloride] |
| < 50 nM | Cc1cc(N[C@H]2CC[C@@H](NC(=O)c3ccc(Cl)c(F)c3)CC2)nc2ccccc12 [Example 3168, 4-Chloro-3-fluoro-N-[cis-4-(4-methyl-quinolin-2-ylamino)-cyclohexyl]-benzamide hydrochloride] |
| < 50 nM | Cc1cc(C(=O)N[C@H]2CC[C@@H](Nc3nc4c(c(N(C)C)n3)CCCC4)CC2)ccc1F [Example 3109, N-[cis-4-(4-Dimethylamino-5,6,7,8-tetrahydro-quinazolin-2-ylamino)-cyclohexyl]-4-fluoro-3-methyl-benzamide hydrochloride] |
| 50 to 200 nM | Cc1cc(N[C@H]2CC[C@@H](NC(=O)c3cccc(F)c3F)CC2)nc2ccccc12 [Example 3162, 2,3-Difluoro-N-[cis-4-(4-methyl-quinolin-2-ylamino)-cyclohexyl]-benzamide hydrochloride] |
